According to US11129897B2, “Fast-acting plant-based medicinal compounds and nutritional supplements” (RECEPTOR HOLDINGS, INC., priority 2016, dated 2021):

Tests used:
[1] = cited from earlier work
[2] = versus molecule without SNAC; in words; cited from earlier work
study participants [3] = assay: Onset and duration of action of orally administered Cannabis/SNAC composition (Example 2, 200 mg SNAC); assay type: in vivo, human; settings: oral; 200 mg SNAC with Cannabis concentrate (8 mg THC)
Protocol: This study was designed to assess the utility of SNAC in enabling a rapid-acting oral form of Cannabis.
Selection of Participants. Six study participants were recruited to ingest Cannabis compositions and record the onset, duration, and intensity of Cannabis-induced euphoria and/or dysphoria.
(§1) Formulations. The selected Cannabis concentrate is commercially available and was provided to participants in an ethanol solution. The concentrate contains 8 mg THC per dose. It was selected because it contains a high percentage of THC, which provides a noticeable effect on user-reported “euphoria”.
(§2) Methods. For the Control experiment, each participant mixed the Cannabis concentrate with 15 ml (one tablespoon) of aqueous ethanol, and immediately swallowed the mixture.
(§3) For both the Control experiment and the Test experiment, each participant recorded the time of dose administration, the time of onset of euphoria and/or dysphoria, and the observed level of euphoria and/or dysphoria in fifteen minute intervals for five hours following administration of the Cannabis dose. Euphoria and dysphoria were reported using a scale value, in a range from 1-10.

study participants [4] = assay: Onset and duration of action of orally administered Cannabis/SNAC composition at a low SNAC dose (Example 3, 100 mg SNAC); assay type: in vivo, human; settings: oral; 100 mg SNAC with Cannabis concentrate (8 mg THC)
Protocol: This study was designed to assess the utility of SNAC in enabling a rapid-acting oral form of Cannabis at a low dose.
Selection of Participants. Three study participants were recruited to ingest Cannabis compositions and record the onset, duration, and intensity of Cannabis-induced euphoria and/or dysphoria.
as §1, §2
as §3, with “1-5.” for “1-10.”

Row | Compound | absorption when co-administered with an N-acylated fatty amino acid (e.g., SNAC) [2] | also measured
1 | CCCCCc1cc(O)c2c(c1)OC(C)(C)[C@@H]1CCC(C)=C[C@@H]21 [THC, delta-9-tetrahydrocannabinol] | – | appetite stimulant effect may continue after administration ([1]; after oral administration): ≥ 24 h; duration of action for psychoactive effects ([1]; after oral administration): 4 to 6 h; peak effect (time) ([1]; after oral administration): 2 to 4 h; administered dose that reaches the systemic circulation ([1]; oral, first pass hepatic metabolism and poor aqueous solubility): 10-20%
2 | CCCCCN(C)CCC(O)(P(=O)(O)O)P(=O)(O)O [ibandronate] | improved absorption | –
3 | GLP-1: GLP-1, water-soluble molecule with SNAC-improved absorption | improved absorption | –
4 | MT-II | improved absorption | –
5 | PTH 1-34: parathyroid hormone 1-34 | improved absorption | –
6 | calcitonin: calcitonin, water-soluble molecule with SNAC-improved absorption | improved absorption | –
7 | heparin | improved absorption | –
8 | peptide yy: peptide yy, water-soluble molecule with SNAC-improved absorption | improved absorption | –
9 | rhGH: recombinant human growth hormone | improved absorption | –
10 | sodium N-[8-(2-hydroxybenzoyl) amino] caprylate [SNAC] | – | effect of the absorption enhancer on the duration of action of Cannabis (study participants [3]): no effect on the duration of action; effect of the absorption enhancer on the duration of action of Cannabis (study participants [4]): no effect on the duration of action
11 | vitamin B12 | improved absorption | –
